How the values were obtained:
[1] = test system: tet-dependent GFP construct in organotypic hippocampal Müller cultures; assay: Photoactivation of organotypic hippocampal Müller cultures (tet-dependent GFP transgene); assay type: cell-based, rat or mouse; details: 1.5 μM, optical fiber 200 μm, irradiated three times for 2 min with an interval of 1 hour
Procedure: FIG. 5 depicts a modified assay to test photoactivation in tissues, exemplified again by the use of organotypic hippocampal Müller cultures. […] To determine the maximal level of GFP expression that is possible with this approach, unmodified doxycycline was added in saturating concentrations (2 μM). […] The bright-field image on the right allows normal visualization of the culture (FIG. 5b).
FIG. 6: In a new set of experiments, photoactivation was done by using thin optical fibers (200 μm) for irradiation with the UV light coming from a Xenon arc lamp. The UV beam could be positioned with the help of a recording electrode that was aligned to be in the center of the circular irradiation area. About half of the culture was irradiated with this arrangement. The position of the electrode is indicated by the red dot. The culture was incubated with 1.5 μM caged doxycycline one hour prior to irradiation. Cultures were irradiated three times for 2 min with an interval of 1 hour. […] FIG. 6b indicates the electrode position relative to the whole culture.

[2] = test system: tet-dependent chloramphenicol transferase (CAT) construct in organotypic hippocampal Müller cultures; assay: Photoactivation of organotypic hippocampal Müller cultures (tet-dependent CAT transgene, immunohistochemistry); assay type: cell-based, rat or mouse
Procedure: FIG. 3 depicts a second assay to test photoactivation in tissues, exemplified by the use of organotypic hippocampal Müller cultures. […] After administration of caged doxycycline to the cells by adding it to the medium and subsequent photoactivation, CAT expression was assessed immuno-histochemically. […] CAT expression in the irradiated slice is mainly seen in cells at the border of the slice where cells become infected with viruses much more rapidly than in the center.
FIG. 4 illustrates the result of a further experiment performed by the present inventors. That is, in order to test if photoactivated gene expression can be used to induce gene expression in a locally restricted manner, adenovirus-infected Müller cultures were irradiated only in one half of the slice. […] Again, fluorescence is mostly seen at the slice boundary where the virus most readily infects cells of the culture. Thus, photoactivated gene expression provides the researcher with excellent spatial control over gene expression.
Mouse or rat hippocampal Müller cultures were prepared according to standard procedures from P5-7 animals. […] Following overnight incubation, 0.15 μM caged doxycycline was added to the medium, incubated for 1 h, and slices or selected regions of slices were irradiated for 10 sec with an upright fluorescence microscope using an appropriate filter (XF3000, OMEGA OPTICAL). Following overnight incubation, CAT fluorescence was detected immunohistochemically with a polyclonal anti-CAT antibody (Sigma).

[3] = final concentration 0.1 to 1 μM, within 24 h at 37° C.
[4] = test system: CHO cells expressing the fusion protein and containing a tetracycline-dependent EGFP construct; assay: Photoactivation of CHO cells (EGFP reporter); assay type: cell-based
Procedure: CHO cells mentioned above (that is, cells expressing the fusion protein^3 and containing a tetracycline-dependent EGFP) were used as a simple cell culture assay were propagated and plated according to standard cell culture procedures in Ham's F-12 medium. Cells were plated in 35 mm dishes with a glass bottom from Mattek. Two days after plating, cells were overlaid with 1% low-gelling agarose in Ham's F-12 containing 1 mM Na-butyrate and 0.3 μM caged doxycycline. Subsequently, a subset of cells was locally irradiated with a hand-held 6W UV lamp (365 nm) for 30 sec. Following overnight incubation, EGFP expression was assessed with a fluorescence microscope.

| Compound | GFP expression after local UV irradiation [1] | CAT expression, unirradiated control slice ([2]; no irradiation) | CAT expression, irradiated slice ([2]; single pulse of UV irradiation, 0.15 μM caged doxycycline) | Spontaneous decomposition under incubation conditions [3] | Local expression of genes/transgenes on irradiation ([2]; irradiated CHO cells or organotypic hippocampal Müller cultures) | EGFP fluorescence, irradiated cells ([4]; CHO cells incubated with caged compound (0.3 μM), UV 365 nm 30 sec, overnight incubation) | EGFP fluorescence, cells not irradiated ([4]; cells in the same dish that were not irradiated) |
| --- | --- | --- | --- | --- | --- | --- | --- |
| 1-(4,5-dimethoxy-2-nitrophenyl)-ethyl-caged doxycycline [DMNPE-caged doxycycline] | GFP positive cells that are within the circular irradiation area | did not display any CAT expression | CAT expression in a few cells | about 10% |  |  |  |
| COc1cc(C(C)O[C@]23C(=O)C(C(N)=O)=C(O)[C@H](N(C)C)[C@H]2[C@H](O)[C@@H]2C(=C3O)C(=O)c3c(O)cccc3[C@H]2C)c([N+](=O)[O-])cc1OC (stereo partly shown) [DMNPE-caged doxycycline, 1-(4,5-dimethoxy-2-nitrophenyl)-ethyl-caged doxycycline] |  |  |  |  | specific, time-dependent, and local expression of genes/transgenes | widespread EGFP fluorescence | did not fluoresce |

From US20060105458A1, “Caged tetracycline (derivatives), their generation, and their use for photoactivated gene expression” (priority 2002, published 2006)
